Experiments:
Design in all cases: scale not given here
[1] = system: ABUTH Velvetleaf; assay: Preemergence herbicidal evaluation, ABUTH; format: in vivo, Abutilon theophrasti, Medic.; conditions: preemergence
How it was run: (§1)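 Compound applied preemergence as an aqueous acetone spray onto freshly planted cups, dose equivalent approx. 0.013 to 0.800 kg/ha. Evaluation by rating at weeks 4–5.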

[2] = system: CASOB Sicklepod; assay: Preemergence herbicidal evaluation, CASOB; format: in vivo, Cassia obtusifolia, L.; conditions: preemergence
How it was run: as §1

[3] = system: SETVI Foxtail, Green; assay: Postemergence herbicidal evaluation, SETVI; format: in vivo, Setaria viridis, (L.) Beau; conditions: postemergence spray, rated about two-three weeks after treatment
How it was run: (§2)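 Visual injury rating ~2–3 wk post-spray; replicate tests averaged. Two-week-old seedlings; foliar spray at 40 psi; 0.006–0.400 kg ai/ha in 80/20 acetone/water + 1.0% methylated seed oil.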

[4] = system: GALAP Galium; assay: Postemergence herbicidal evaluation, GALAP; format: in vivo, Galium aparine; conditions: postemergence spray, rated about two-three weeks after treatment
How it was run: as §2

[5] = system: AMBEL Ragweed, Common; assay: Postemergence herbicidal evaluation, AMBEL; format: in vivo, Ambrosia artemisifolia, L.; conditions: postemergence spray, rated about two-three weeks after treatment
How it was run: as §2

[6] = system: ABUTH Velvetleaf; assay: Postemergence herbicidal evaluation, ABUTH; format: in vivo, Abutilon theophrasti, Medic.; conditions: postemergence spray, rated about two-three weeks after treatment
How it was run: as §2

[7] = system: ECHOG Barnyardgrass; assay: Preemergence herbicidal evaluation, ECHOG; format: in vivo, Echinochloa crus-galli, (L.) Beau; conditions: preemergence
How it was run: as §1

[8] = system: GLXMAW Soybean, Williams; assay: Preemergence herbicidal evaluation, GLXMAW; format: in vivo, Glycine max, (L.) Merr. cv Williams; conditions: preemergence
How it was run: as §1

[9] = system: ECHOG Barnyardgrass; assay: Postemergence herbicidal evaluation, ECHOG; format: in vivo, Echinochloa crus-galli, (L.) Beau; conditions: postemergence spray, rated about two-three weeks after treatment
How it was run: as §2

[10] = system: GLXMAW Soybean, Williams; assay: Postemergence herbicidal evaluation, GLXMAW; format: in vivo, Glycine max, (L.) Merr. cv Williams; conditions: postemergence spray, rated about two-three weeks after treatment
How it was run: as §2

[11] = system: ZEAMX Corn, Field; assay: Postemergence herbicidal evaluation, ZEAMX; format: in vivo, Zea mays, L. (Sammel-Bezeichnung); conditions: postemergence spray, rated about two-three weeks after treatment
How it was run: as §2

[12] = system: IPOHE Morningglory, Ivyleaf; assay: Preemergence herbicidal evaluation, IPOHE; format: in vivo, Ipomoea hederacea, (L.) Jacq.; conditions: preemergence
How it was run: as §1

[13] = system: CHEAL Lambsquarters, Common; assay: Preemergence herbicidal evaluation, CHEAL; format: in vivo, Chenopodium album, L.; conditions: preemergence
How it was run: as §1

[14] = system: AMBEL Ragweed, Common; assay: Preemergence herbicidal evaluation, AMBEL; format: in vivo, Ambrosia artemisifolia, L.; conditions: preemergence
How it was run: as §1

[15] = system: TRZAWR Wheat, Winter, cv Riband; assay: Postemergence herbicidal evaluation, TRZAWR; format: in vivo, Triticum aestivum; conditions: postemergence spray, rated about two-three weeks after treatment
How it was run: as §2

[16] = system: CHEAL Lambsquarters, Common; assay: Postemergence herbicidal evaluation, CHEAL; format: in vivo, Chenopodium album, L.; conditions: postemergence spray, rated about two-three weeks after treatment
How it was run: as §2

[17] = system: IPOHE Morningglory, Ivyleaf; assay: Postemergence herbicidal evaluation, IPOHE; format: in vivo, Ipomoea hederacea, (L.) Jacq.; conditions: postemergence spray, rated about two-three weeks after treatment
How it was run: as §2

[18] = system: CASOB Sicklepod; assay: Postemergence herbicidal evaluation, CASOB; format: in vivo, Cassia obtusifolia, L.; conditions: postemergence spray, rated about two-three weeks after treatment
How it was run: as §2

[19] = system: ZEAMX Corn, Field; assay: Preemergence herbicidal evaluation, ZEAMX; format: in vivo, Zea mays, L. (Sammel-Bezeichnung); conditions: preemergence
How it was run: as §1

[20] = system: SETVI Foxtail, Green; assay: Preemergence herbicidal evaluation, SETVI; format: in vivo, Setaria viridis, (L.) Beau; conditions: preemergence
How it was run: as §1

[21] = system: ORYSAT Rice, Tebonnet; assay: Preemergence herbicidal evaluation, ORYSAT; format: in vivo, Oryza sativa, (L.); conditions: preemergence
How it was run: as §1

[22] = system: ORYSAT Rice, Tebonnet; assay: Postemergence herbicidal evaluation, ORYSAT; format: in vivo, Oryza sativa, (L.); conditions: postemergence spray, rated about two-three weeks after treatment
How it was run: as §2

[23] = system: GALAP Galium; assay: Preemergence herbicidal evaluation, GALAP; format: in vivo, Galium aparine; conditions: preemergence
How it was run: as §1

[24] = system: TRZAWR Wheat, Winter, cv Riband; assay: Preemergence herbicidal evaluation, TRZAWR; format: in vivo, Triticum aestivum; conditions: preemergence
How it was run: as §1

CCc1ccccc1-n1nnc2cc(F)c(-n3c(=O)cc(C(F)(F)F)n(C)c3=O)cc21 [Example 25]
4.5: Postemergence herbicidal rating GLXMAW ([10]; 0.016 kg/ha) | IPOHE herbicidal rating ([12]; rate 0.032 kg/ha)
1.5: CASOB herbicidal rating ([2]; rate 0.062 kg/ha) | GLXMAW herbicidal rating ([8]; rate 0.125 kg/ha) | Postemergence herbicidal rating TRZAWR ([15]; 0.008 kg/ha) | ORYSAT herbicidal rating ([21]; rate 0.125 kg/ha) | Postemergence herbicidal rating ORYSAT ([22]; 0.032 kg/ha)
6.0: ABUTH herbicidal rating ([1]; rate 0.032 kg/ha) | ABUTH herbicidal rating ([1]; rate 0.062 kg/ha) | Postemergence herbicidal rating ABUTH ([6]; 0.008 kg/ha)
0.0: CASOB herbicidal rating ([2]; rate 0.016 kg/ha) | CASOB herbicidal rating ([2]; rate 0.032 kg/ha) | Postemergence herbicidal rating SETVI ([3]; 0.008 kg/ha) | Postemergence herbicidal rating SETVI ([3]; 0.016 kg/ha) | Postemergence herbicidal rating GALAP ([4]; 0.008 kg/ha) | Postemergence herbicidal rating GALAP ([4]; 0.016 kg/ha) | Postemergence herbicidal rating AMBEL ([5]; 0.008 kg/ha) | Postemergence herbicidal rating AMBEL ([5]; 0.016 kg/ha) | ECHCG herbicidal rating ([7]; rate 0.016 kg/ha) | ECHCG herbicidal rating ([7]; rate 0.032 kg/ha) | GLXMAW herbicidal rating ([8]; rate 0.016 kg/ha) | GLXMAW herbicidal rating ([8]; rate 0.032 kg/ha) | Postemergence herbicidal rating ECHCG ([9]; 0.008 kg/ha) | Postemergence herbicidal rating ECHCG ([9]; 0.016 kg/ha) | Postemergence herbicidal rating ECHCG ([9]; 0.032 kg/ha) | Postemergence herbicidal rating ECHCG ([9]; 0.062 kg/ha) | IPOHE herbicidal rating ([12]; rate 0.016 kg/ha) | AMBEL herbicidal rating ([14]; rate 0.016 kg/ha) | AMBEL herbicidal rating ([14]; rate 0.032 kg/ha) | Postemergence herbicidal rating CASOB ([18]; 0.008 kg/ha) | Postemergence herbicidal rating CASOB ([18]; 0.016 kg/ha) | Postemergence herbicidal rating CASOB ([18]; 0.032 kg/ha) | ZEAMX herbicidal rating ([19]; rate 0.016 kg/ha) | ZEAMX herbicidal rating ([19]; rate 0.032 kg/ha) | SETVI herbicidal rating ([20]; rate 0.016 kg/ha) | ORYSAT herbicidal rating ([21]; rate 0.016 kg/ha) | ORYSAT herbicidal rating ([21]; rate 0.032 kg/ha) | ORYSAT herbicidal rating ([21]; rate 0.062 kg/ha) | GALAP herbicidal rating ([23]; rate 0.016 kg/ha) | GALAP herbicidal rating ([23]; rate 0.032 kg/ha) | GALAP herbicidal rating ([23]; rate 0.062 kg/ha) | GALAP herbicidal rating ([23]; rate 0.125 kg/ha) | TRZAWR herbicidal rating ([24]; rate 0.016 kg/ha) | TRZAWR herbicidal rating ([24]; rate 0.032 kg/ha) | TRZAWR herbicidal rating ([24]; rate 0.062 kg/ha)
4.0: Postemergence herbicidal rating GALAP ([4]; 0.032 kg/ha) | Postemergence herbicidal rating GALAP ([4]; 0.062 kg/ha) | Postemergence herbicidal rating ZEAMX ([11]; 0.032 kg/ha) | ZEAMX herbicidal rating ([19]; rate 0.125 kg/ha)
2.5: Postemergence herbicidal rating TRZAWR ([15]; 0.016 kg/ha)
9.0: ABUTH herbicidal rating ([1]; rate 0.125 kg/ha) | Postemergence herbicidal rating ABUTH ([6]; 0.032 kg/ha) | Postemergence herbicidal rating ABUTH ([6]; 0.062 kg/ha) | CHEAL herbicidal rating ([13]; rate 0.016 kg/ha) | CHEAL herbicidal rating ([13]; rate 0.032 kg/ha) | CHEAL herbicidal rating ([13]; rate 0.062 kg/ha) | CHEAL herbicidal rating ([13]; rate 0.125 kg/ha) | Postemergence herbicidal rating CHEAL ([16]; 0.016 kg/ha) | Postemergence herbicidal rating CHEAL ([16]; 0.032 kg/ha) | Postemergence herbicidal rating CHEAL ([16]; 0.062 kg/ha) | Postemergence herbicidal rating IPOHE ([17]; 0.032 kg/ha) | Postemergence herbicidal rating IPOHE ([17]; 0.062 kg/ha) | SETVI herbicidal rating ([20]; rate 0.062 kg/ha) | SETVI herbicidal rating ([20]; rate 0.125 kg/ha)
7.0: Postemergence herbicidal rating SETVI ([3]; 0.062 kg/ha)
8.0: Postemergence herbicidal rating ABUTH ([6]; 0.016 kg/ha) | ECHCG herbicidal rating ([7]; rate 0.125 kg/ha)
2.0: CASOB herbicidal rating ([2]; rate 0.125 kg/ha) | Postemergence herbicidal rating AMBEL ([5]; 0.032 kg/ha) | Postemergence herbicidal rating AMBEL ([5]; 0.062 kg/ha) | ECHCG herbicidal rating ([7]; rate 0.062 kg/ha) | GLXMAW herbicidal rating ([8]; rate 0.062 kg/ha) | Postemergence herbicidal rating IPOHE ([17]; 0.008 kg/ha) | ZEAMX herbicidal rating ([19]; rate 0.062 kg/ha) | Postemergence herbicidal rating ORYSAT ([22]; 0.062 kg/ha) | TRZAWR herbicidal rating ([24]; rate 0.125 kg/ha)
1.0: AMBEL herbicidal rating ([14]; rate 0.062 kg/ha) | Postemergence herbicidal rating CASOB ([18]; 0.062 kg/ha) | Postemergence herbicidal rating ORYSAT ([22]; 0.016 kg/ha)
5.0: Postemergence herbicidal rating GLXMAW ([10]; 0.032 kg/ha) | Postemergence herbicidal rating ZEAMX ([11]; 0.062 kg/ha)
3.0: ABUTH herbicidal rating ([1]; rate 0.016 kg/ha) | Postemergence herbicidal rating SETVI ([3]; 0.032 kg/ha) | Postemergence herbicidal rating GLXMAW ([10]; 0.008 kg/ha) | Postemergence herbicidal rating ZEAMX ([11]; 0.008 kg/ha) | Postemergence herbicidal rating TRZAWR ([15]; 0.032 kg/ha) | Postemergence herbicidal rating TRZAWR ([15]; 0.062 kg/ha) | Postemergence herbicidal rating CHEAL ([16]; 0.008 kg/ha) | Postemergence herbicidal rating IPOHE ([17]; 0.016 kg/ha)
5.5: IPOHE herbicidal rating ([12]; rate 0.062 kg/ha)
3.5: Postemergence herbicidal rating ZEAMX ([11]; 0.016 kg/ha) | AMBEL herbicidal rating ([14]; rate 0.125 kg/ha) | SETVI herbicidal rating ([20]; rate 0.032 kg/ha)
0.5: Postemergence herbicidal rating ORYSAT ([22]; 0.008 kg/ha)
6.5: Postemergence herbicidal rating GLXMAW ([10]; 0.062 kg/ha) | IPOHE herbicidal rating ([12]; rate 0.125 kg/ha)

Source: patent publication US20020111274A1, “1-alkyl-3-[1-(substituted phenyl) benzotriazol-6-yl] uracils” (BASF Aktiengesellschaft, priority 2000, published 2002)
